The subject of the assay is P388. Kind of assay: Cytotoxicity against mouse P388 cells. It is filed as functional.

Values after ≈ are worked out from the molar mass of the structure shown.

Turning to `Nc1ncnc2c1ccn2[C@@H]1O[C@H](CO)[C@@H](O)[C@H]1O`, the Activity entry was “Toxic”.
In the case of `NC1=Cc2nc3ccc(Br)cc3c3ccnc(c23)C1=O` [PANTHERININE], under “read-out: ED50 (the source's name)”, the EC50 was 4.5 µg/mL (≈ 13.8 µM).

The values are drawn from ChEMBL document CHEMBL1147386, “Pantherinine, a cytotoxic aromatic alkaloid, and 7-deazainosine from the ascidian Aplidium pantherinum” (1993).
